# Assay results from US11897850B1, “N′-(2-(5-(4-chlorophenyl)-1,3,4-oxadiazol-2-ylthio)acetoxy)-4-methoxybenzimidamide as an antimicrobial compound” (KING FAISAL UNIVERSITY, priority 2023, dated 2024).
# Columns and labels:
# Type in all cases: cell-based
# Bacillus cereus = experiment: Agar plate disc-diffusion, antibacterial activity by inhibition zone; details: nutrient agar, 37° C., 48 h
# Experimental: (§1) The agar plate disc-diffusion method was applied. […] The discs were then placed onto the surface of agar plates (nutrient agar for bacteria and Sabouraud's dextrose agar for fungi) seeded with the test organism. Each plate contained 15 mL of the agar medium, previously seeded with 0.2 mL of the broth culture of each organism pregrown for 18 h. The plates were incubated at 37° C. for 48 h, and 72 h for fungi. The inhibition zones was measured in mm. Discs impregnated with DMSO were used as a control, and its inhibition zone was subtracted from the tested compound actual inhibition zone.
# (§2) The results of the antimicrobial testing can be observed in Tables 1 and 2, below, using ciprofloxacin as a reference.
# Escherichia coli = experiment: as above; details: nutrient agar, 37° C., 48 h
# Experimental: as §1, §2
# Pseudomonas aeruginosa = experiment: as above; details: nutrient agar, 37° C., 48 h
# Experimental: as §1, §2
# Staphylococcus aureus = experiment: as above; details: nutrient agar, 37° C., 48 h
# Experimental: as §1, §2
# Aspergillus flavus = experiment: Agar plate disc-diffusion, antifungal activity by inhibition zone; details: Sabouraud's dextrose agar, 72 h
# Experimental: as §1, §2
# [1] = test system: Chrysosporium keratinophilum; experiment: as above; details: Sabouraud's dextrose agar, 72 h
# Experimental: The agar plate disc-diffusion method was applied. Sterilized filter papers (6 mm in diameter) were wetted with 10 μL of a solution N′-(2-(5-(4-chlorophenyl)-1,3,4-oxadiazol-2-ylthio)acetoxy)-4-methoxybenzimidamide (3) to be tested, containing 10 mg/mL in DMSO, and the discs were allowed to air dry. The discs were then placed onto the surface of agar plates (nutrient agar for bacteria and Sabouraud's dextrose agar for fungi) seeded with the test organism. Each plate contained 15 mL of the agar medium, previously seeded with 0.2 mL of the broth culture of each organism pregrown for 18 h. The plates were incubated at 37° C. for 48 h, and 72 h for fungi. The inhibition zones was measured in mm. Discs impregnated with DMSO were used as a control, and its inhibition zone was subtracted from the tested compound actual inhibition zone.
# as §2
# [2] = A = concentration of comp. = 10,000 μL
# [3] = B = concentration of comp. = 30,000 μL
# [4] = C = concentration of comp. = 50,000 μL
Compound,inhibition zone (Bacillus cereus; [2]) [mm],inhibition zone (Bacillus cereus; [3]) [mm],inhibition zone (Bacillus cereus; [4]) [mm],inhibition zone (Escherichia coli; [2]) [mm],inhibition zone (Escherichia coli; [3]) [mm],inhibition zone (Escherichia coli; [4]) [mm],inhibition zone (Pseudomonas aeruginosa; [2]) [mm],inhibition zone (Pseudomonas aeruginosa; [3]) [mm],inhibition zone (Pseudomonas aeruginosa; [4]) [mm],inhibition zone (Staphylococcus aureus; [2]) [mm],inhibition zone (Staphylococcus aureus; [3]) [mm],inhibition zone (Staphylococcus aureus; [4]) [mm],inhibition zone (Aspergillus flavus; [2]) [mm],inhibition zone (Aspergillus flavus; [3]) [mm],inhibition zone (Aspergillus flavus; [4]) [mm],"inhibition zone [1, 2] [mm]","inhibition zone [1, 3] [mm]","inhibition zone [1, 4] [mm]"
"O=C(O)c1cn(C2CC2)c2cc(N3CCNCC3)c(F)cc2c1=O [Cip., ciprofloxacin]",29,30,42,30,39,60,29,30,53,43,44,53,29,30,42,29,30,53
"COc1ccc(/C(N)=N/OC(=O)CSc2nnc(-c3ccc(Cl)cc3)o2)cc1 [Compound 3, N′-(2-(5-(4-chlorophenyl)-1,3,4-oxadiazol-2-ylthio)acetoxy)-4-methoxybenzimidamide]",28,31,39,29,38,47,24,28,40,20,24,36,21,22,35,24,28,41
